# Key:
# Assay type in all cases: biochemical
# [1] = system: 3′-5′ cAMP-PDE activity in human seminal plasma; assay: 3′-5′ cAMP-PDE assay with family-specific PDE inhibitors in human seminal plasma; settings: fresh human seminal plasma; Rolipram 10 μM, Papaverine 400 nM (FIG. 19)
# Method: A certain amount of complete ejaculate was kept to isolate spermatozoa from seminal plasma. This portion was centrifuged at 400×g during 10 minutes at room temperature to gently pull down spermatozoa. Supernatant was transferred and centrifuged again at 6 000×g at 4° C. during 20 minutes to pull down any remaining spermatozoa. Supernatant was then transferred and centrifuged at 6 000×g at 4° C. during 20 minutes to remove any remaining debris. SP samples were kept on ice until used for PDE assay and stored at -80° C. for further characterization. The cAMP enzymatic assay (PDE assay) was conducted as previously described ([…]. et al., (2006). BMC developmental biology 6, 47). […] J. et al., (1979). Adv Cyclic Nucleotide Res 10, 69-92) with minor modifications. […] Measurements were also performed in the presence of PDE inhibitors: […] Cilostamide and Rolipram were purchased from Biomol. […] Each PDE assay was performed in triplicate for each experiment and each experiment was repeated at least three times. As described ([…]. et al., (2009). […] IBMX-sensitive PDE5 and PDE6 and IBMX-insensitive PDE9 activities are absent from these groups because cGMP is the specific substrate and then are not detected in the cAMP-PDE assay. […] J Dairy Sci 92, 3757-3765; […]., et al. (2007). Endocrinology 148, 1858-1867; Siuciak, J. A. et al., (2006). Neuropharmacology 51, 386-396).
# [2] = system: 3′-5′ cAMP-PDE activity in bovine cauda epididymal plasma; assay: 3′-5′ cAMP-PDE assay in bovine cauda epididymal plasma; settings: thawed epididymal plasma 0.5 μL; Papaverine (400 μM) as printed (FIG. 5)
# Method: Epididymis from sexually mature bulls was obtained from a local slaughterhouse. Immediately after slaughtering, testicles were kept on ice and brought to the laboratory within 3 hours. Epididymis was dissected and cleared from connective tissues. As already described (Frenette, G. et al., (2002). Biol Reprod 67, 308-313), fluid from the cauda epididymis was collected by retrograde flushing. Epididymal plasma was isolated according to the same centrifugations steps than the seminal plasma as described below.
# The cAMP enzymatic assay (PDE assay) was conducted as previously described (Sasseville, M. et al., (2006). BMC developmental biology 6, 47). Samples were directly subjected to PDE assay. 3′-5′ cAMP-PDE activity was assessed at 34° C. in 200 μL final volume using 1 μM cAMP as substrate (Thompson, W. J. et al., (1979). Adv Cyclic Nucleotide Res 10, 69-92) with minor modifications. […] Knowing the exact concentrations of spermatozoa in each SP sample, total 3′-5′ cAMP-PDE activity was reported as the quantity of cAMP (fMol) hydrolysed per minute per the number of spermatozoa (fMol/min/10^6 spz). […] To determine which PDE family contributes to total 3′-5′ cAMP-PDE activity, the activity measured in the presence of the respective inhibitors was subtracted from the total. […]
# [3] = system: 3′-5′ cAMP-PDE activity in human spermatozoa; assay: 3′-5′ cAMP-PDE assay with family-specific PDE inhibitors in human spermatozoa; settings: 95% fractionation method, papaverine 400 nM (FIG. 18)
# Method: Ejaculates were obtained by masturbation from healthy donors after a minimum of 2 days of sexual abstinence. After ejaculation, semen was kept at room temperature to allow liquefaction. To prepare human ejaculate, three different fractionation methods were used: “G2 method”, “40-80% fractionation” or “95% fractionation”.
# For “G2 method”, according to the ejaculate volume, approximately 1 ml of semen was added to 5 ml of isotonic solution: HEPES-buffered saline (HBS: 25 mM Hepes, 130 mM NaCl, 4 mM KCl, 0.5 mM MgCl2, 14 mM fructose, pH 7.6) in a 15 mL falcon tube to wash the spermatozoa from the seminal plasma. […] Then, the samples were vortex-agitated for 30 sec and kept on the ice until ready to run the assay. The concentration of sperm cells was measured according to hemacytometer method. […]
# The cAMP enzymatic assay (PDE assay) was conducted as previously described (Sasseville, M. et al., (2006). BMC developmental biology 6, 47). […] 3′-5′ cAMP-PDE activity was assessed at 34° C. in 200 μL final volume using 1 μM cAMP as substrate (Thompson, W. J. et al., (1979). Adv Cyclic Nucleotide Res 10, 69-92) with minor modifications. […] Knowing the exact concentrations of spermatozoa in each SP sample, total 3′-5′ cAMP-PDE activity was reported as the quantity of cAMP (fMol) hydrolysed per minute per the number of spermatozoa (fMol/min/10^6 spz). […]
compound,measurement,setting,value
COc1ccc(Cc2nccc3cc(OC)c(OC)cc23)cc1OC [Papaverine],Inhibitor-sensitive PDE activity in human seminal plasma (in words),[1],low percentage
same,Papaverine-sensitive PDE activity in bovine epididymal fluid (in words),[2],low
same,Share of cAMP-PDE activity that is papaverine-sensitive,[3],more than 50%

# Source: US20120225417A1, “Methods, Compositions and Kits for the Evaluation and Preservation of Sperm” (I'Alliance Boviteq Inc., priority 2011, published 2012)
